Measurements published in patent US20250059188A1, “ARYLSULPHONAMIDE COMPOUNDS” (Anaxis Pharma Pty Ltd, priority 2021, published 2025).

Tests used:
[1] = target: human MLKL (full length) (Homo sapiens (Human), UniProt Q8NB16); experiment: KINOMEscan binding assay, human MLKL (full length); details: equilibrium dissociation constant
Procedure, shortened: (§1)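 Active-site competition binding: DNA-tagged kinase (T7 phage fusion from BL21-derived E. coli lysate, or HEK-293-expressed) captured on immobilized-ligand beads, with bound kinase in the eluate quantified by qPCR. Compounds ran as 11-point 3-fold dilutions, 1% DMSO, top 30,000 nM for most. Kd came from a Hill fit (slope −1).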

[2] = target: human RIPK1 (Homo sapiens (Human), UniProt Q13546); experiment: KINOMEscan binding assay, human RIPK1; details: equilibrium dissociation constant
human RIPK1, sequence (Q13546 whole entry): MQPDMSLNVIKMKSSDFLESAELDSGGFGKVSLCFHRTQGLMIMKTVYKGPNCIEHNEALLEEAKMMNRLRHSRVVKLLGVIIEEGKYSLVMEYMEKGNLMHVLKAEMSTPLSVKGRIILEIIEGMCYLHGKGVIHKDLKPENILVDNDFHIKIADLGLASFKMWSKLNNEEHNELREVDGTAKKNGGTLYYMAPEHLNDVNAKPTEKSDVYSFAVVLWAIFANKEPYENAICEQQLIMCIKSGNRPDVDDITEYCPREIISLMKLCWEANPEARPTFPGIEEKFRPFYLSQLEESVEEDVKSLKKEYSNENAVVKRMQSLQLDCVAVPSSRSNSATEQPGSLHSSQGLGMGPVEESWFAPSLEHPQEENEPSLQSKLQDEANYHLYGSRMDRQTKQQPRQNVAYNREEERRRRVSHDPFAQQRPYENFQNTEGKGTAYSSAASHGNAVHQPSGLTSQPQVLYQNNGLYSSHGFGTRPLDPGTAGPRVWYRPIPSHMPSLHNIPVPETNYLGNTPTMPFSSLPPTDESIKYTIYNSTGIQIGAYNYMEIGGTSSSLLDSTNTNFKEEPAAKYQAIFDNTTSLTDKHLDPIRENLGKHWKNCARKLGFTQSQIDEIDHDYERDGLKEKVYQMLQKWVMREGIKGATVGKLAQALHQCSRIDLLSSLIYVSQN
Procedure, shortened: as §1

[3] = target: human RIPK3 (Homo sapiens (Human), UniProt Q9Y572); experiment: KINOMEscan binding assay, human RIPK3; details: equilibrium dissociation constant
human RIPK3, sequence (Q9Y572 whole entry): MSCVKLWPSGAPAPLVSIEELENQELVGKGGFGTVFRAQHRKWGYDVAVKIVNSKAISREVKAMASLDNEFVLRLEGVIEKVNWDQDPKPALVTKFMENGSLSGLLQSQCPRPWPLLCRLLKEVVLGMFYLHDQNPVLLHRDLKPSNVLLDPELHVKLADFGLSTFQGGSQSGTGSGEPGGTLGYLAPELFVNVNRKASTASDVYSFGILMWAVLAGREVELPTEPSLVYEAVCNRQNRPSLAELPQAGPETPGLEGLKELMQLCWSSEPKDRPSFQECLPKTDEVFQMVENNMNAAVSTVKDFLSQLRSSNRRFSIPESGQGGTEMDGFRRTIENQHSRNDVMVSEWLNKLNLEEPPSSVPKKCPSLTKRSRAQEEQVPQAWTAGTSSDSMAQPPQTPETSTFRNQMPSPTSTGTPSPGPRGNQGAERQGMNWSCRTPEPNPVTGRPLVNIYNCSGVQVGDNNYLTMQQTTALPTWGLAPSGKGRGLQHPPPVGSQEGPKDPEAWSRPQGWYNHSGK
Procedure, shortened: as §1

[4] = system: U937 human histiocytic leukemia cell line; experiment: Inhibition of TSQ induced necroptosis in U937 cells (CellTitre-Glo); details: Homo sapiens, U-937, TSQ cocktail (TNF, Smac mimetic, Q-VD-OPh), 48 hours, read-out: Inhibition of TSQ-induced necroptosis (IC50 cell-based assay)
Procedure, shortened: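 Necroptosis was induced with TNF-Fc (100 ng/ml), Smac mimetic (500 nM) and Q-VD-OPh (10 μM) in 20000 U937 cells/well exposed to a 10-point, 3-fold compound series (top 36 μM, 0.3% DMSO). ATP luminescence read after 48 h; 4-parameter fit gave IC50. Parallel TSQ-free wells assessed compound toxicity.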

[5] = system: U937 cells; experiment: Counter screen: U937 cell viability without TSQ cocktail (off-target effect); set-up: species or system human; details: Homo sapiens, U-937, compound without TSQ cocktail, read-out: Off-target effect (IC50 cell-based assay)
Procedure, shortened: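 Off-target viability counter screen: compounds titrated 36 μM down 1:3 over 10 points (0.3% DMSO) on 20,000 U937 cells/well, no TNF/Smac mimetic/Q-VD-OPh added, 48 h incubation. ATP-based CellTiter-Glo luminescence, four-parameter logistic IC50.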

human MLKL (full length), sequence (Q8NB16 whole entry, the tested form may be a part): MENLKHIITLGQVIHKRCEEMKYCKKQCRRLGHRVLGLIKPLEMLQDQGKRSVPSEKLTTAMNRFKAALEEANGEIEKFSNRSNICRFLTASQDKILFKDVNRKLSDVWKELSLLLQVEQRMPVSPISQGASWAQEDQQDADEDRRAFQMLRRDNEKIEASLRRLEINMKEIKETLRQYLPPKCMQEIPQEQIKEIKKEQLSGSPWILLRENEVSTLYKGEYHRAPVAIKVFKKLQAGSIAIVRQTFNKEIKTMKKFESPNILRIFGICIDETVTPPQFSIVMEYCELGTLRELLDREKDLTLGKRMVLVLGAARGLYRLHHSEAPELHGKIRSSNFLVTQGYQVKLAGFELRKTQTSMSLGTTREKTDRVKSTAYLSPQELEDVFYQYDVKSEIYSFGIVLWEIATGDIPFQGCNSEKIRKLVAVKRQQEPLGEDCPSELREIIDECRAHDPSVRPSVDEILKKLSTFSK

Structure (SMILES)	Kd [1]	Kd [2]	Kd [3]	IC50 [4]	IC50 [5]
C[C@H](Oc1cc(-c2nn(C)c3c(-c4cnn(CC(F)(F)F)c4)cnc(N)c23)ccc1NS(=O)(=O)C(F)F)c1ccc(F)cc1 [Compound 116, (S)-N-(4-(4-amino-1-methyl-7-(1-(2,2,2-trifluoroethyl)-1H-pyrazol-4-yl)-1H-pyrazolo[4,3-c]pyridin-3-yl)-2-(1-(4-fluorophenyl)ethoxy)phenyl)-1,1-difluoromethanesulfonamide]	1 to 100 nM	> 10000 nM	> 10000 nM	< 10 nM	> 10000 nM
C[C@H](Oc1cc(-c2nn(C)c3c(-c4cnn(C5CCC(F)(F)C5)c4)cnc(N)c23)ccc1NS(=O)(=O)C(F)F)c1ccc(F)cc1 (stereo partly drawn) [Compound 120, N-(4-{4-amino-7-[1-(3,3-difluorocyclopentyl)-1H-pyrazol-4-yl]-1-methyl-1H-pyrazolo[4,3-c]pyridin-3-yl}-2-[(1S)-1-(4-fluorophenyl)ethoxy]phenyl)-1,1-difluoromethanesulfonamide]	1 to 100 nM	> 10000 nM	> 10000 nM	< 10 nM	> 10000 nM
C[C@@H](Oc1cc(-c2nn(C)c3c(-c4cnn(C5CCOCC5)c4)cnc(N)c23)ccc1NS(=O)(=O)C(F)F)c1ccc(F)cc1 [Compound 121, (R)-N-(4-(4-amino-1-methyl-7-(1-(tetrahydro-2H-pyran-4-yl)-1H-pyrazol-4-yl)-1H-pyrazolo[4,3-c]pyridin-3-yl)-2-(1-(4-fluorophenyl)ethoxy)phenyl)-1,1-difluoromethanesulfonamide]	< 1 nM	> 10000 nM	> 10000 nM	10 to 1000 nM	> 10000 nM
C[C@H](Oc1cc(-c2nn(C)c3c(-c4cnn(C5CCOCC5)c4)cnc(N)c23)ccc1NS(=O)(=O)C(F)F)c1cccc(Cl)c1 [Compound 122, (S)-N-(4-(4-amino-1-methyl-7-(1-(tetrahydro-2H-pyran-4-yl)-1H-pyrazol-4-yl)-1H-pyrazolo[4,3-c]pyridin-3-yl)-2-(1-(3-chlorophenyl)ethoxy)phenyl)-1,1-difluoromethanesulfonamide]	< 1 nM	> 10000 nM	> 10000 nM	10 to 1000 nM	> 10000 nM
C[C@H](Oc1cc(-c2nn(C)c3c(-c4cnn(CCC(F)(F)F)c4)cnc(N)c23)ccc1NS(=O)(=O)C(F)F)c1ccc(F)cc1 [Compound 131, (S)-N-(4-(4-amino-1-methyl-7-(1-(3,3,3-trifluoropropyl)-1H-pyrazol-4-yl)-1H-pyrazolo[4,3-c]pyridin-3-yl)-2-(1-(4-fluorophenyl)ethoxy)phenyl)-1,1-difluoromethanesulfonamide]	1 to 100 nM	> 10000 nM	> 10000 nM	10 to 1000 nM	> 10000 nM
Cn1nc(-c2ccc(NS(=O)(=O)C(F)F)c(OCc3ccc(Cl)c(F)c3)c2)c2c(N)ncc(-c3cnn(C4CCOCC4)c3)c21 [Compound 132, N-(4-(4-amino-1-methyl-7-(1-(tetrahydro-2H-pyran-4-yl)-1H-pyrazol-4-yl)-1H-pyrazolo[4,3-c]pyridin-3-yl)-2-((4-chloro-3-fluorobenzyl)oxy)phenyl)-1,1-difluoromethanesulfonamide]	< 1 nM	> 10000 nM	> 10000 nM	10 to 1000 nM	> 10000 nM
COCC(Oc1cc(-c2nn(C)c3c(-c4cnn(C5CCN(C)CC5)c4)cnc(N)c23)ccc1NS(=O)(=O)C(F)F)c1ccc(F)cc1 (centres unmarked) [Compound 139, N-(4-(4-amino-1-methyl-7-(1-(1-methylpiperidin-4-yl)-1H-pyrazol-4-yl)-1H-pyrazolo[4,3-c]pyridin-3-yl)-2-(1-(4-fluorophenyl)-2-methoxyethoxy)phenyl)-1,1-difluoromethanesulfonamide]	1 to 100 nM	> 10000 nM	> 10000 nM	10 to 1000 nM	> 10000 nM
CC(n1cc(-c2cnc(N)c3c(-c4ccc(NS(=O)(=O)C(F)F)c(O[C@@H](C)c5ccc(F)cc5)c4)nn(C)c23)cn1)C(F)(F)F (stereo partly drawn) [Compound 142, N-(4-(4-amino-1-methyl-7-(1-(1,1,1-trifluoropropan-2-yl)-1H-pyrazol-4-yl)-1H-pyrazolo[4,3-c]pyridin-3-yl)-2-((S)-1-(4-fluorophenyl)ethoxy)phenyl)-1,1-difluoromethanesulfonamide]	< 1 nM	> 10000 nM	> 10000 nM	10 to 1000 nM	> 10000 nM
C[C@H](Oc1cc(-c2nn(C)c3c(-c4cnn(C5CCN(C)C6(CC6)C5)c4)cnc(N)c23)ccc1NS(=O)(=O)C(F)F)c1ccc(F)cc1 (stereo partly drawn) [Compound 145, N-(4-(4-amino-1-methyl-7-(1-(4-methyl-4-azaspiro[2.5]octan-7-yl)-1H-pyrazol-4-yl)-1H-pyrazolo[4,3-c]pyridin-3-yl)-2-((S)-1-(4-fluorophenyl)ethoxy)phenyl)-1,1-difluoromethanesulfonamide]	1 to 100 nM	> 10000 nM	> 10000 nM	< 10 nM	> 10000 nM
C[C@H](Oc1cc(-c2nn(C)c3c(-c4cnn(C5CCC(F)(F)CC5)c4)cnc(N)c23)ccc1NS(=O)(=O)C(F)F)c1ccc(F)cc1 [Compound 146, (S)-N-(4-(4-amino-7-(1-(4,4-difluorocyclohexyl)-1H-pyrazol-4-yl)-1-methyl-1H-pyrazolo[4,3-c]pyridin-3-yl)-2-(1-(4-fluorophenyl)ethoxy)phenyl)-1,1-difluoromethanesulfonamide]	1 to 100 nM	> 10000 nM	> 10000 nM	< 10 nM	> 10000 nM
CC1C(n2cc(-c3cnc(N)c4c(-c5ccc(NS(=O)(=O)C(F)F)c(O[C@@H](C)c6ccc(F)cc6)c5)nn(C)c34)cn2)CN1C (stereo partly drawn) [Compound 147, N-(4-(4-amino-7-(1-(1,2-dimethylazetidin-3-yl)-1H-pyrazol-4-yl)-1-methyl-1H-pyrazolo[4,3-c]pyridin-3-yl)-2-((S)-1-(4-fluorophenyl)ethoxy)phenyl)-1,1-difluoromethanesulfonamide]	1 to 100 nM	> 10000 nM	> 10000 nM	10 to 1000 nM	> 10000 nM
C[C@H](Oc1cc(-c2nn(C)c3c(-c4cnn(C5CCN(C)C(C(F)(F)F)C5)c4)cnc(N)c23)ccc1NS(=O)(=O)C(F)F)c1ccc(F)cc1 (stereo partly drawn) [Compound 148, N-(4-(4-amino-1-methyl-7-(1-(1-methyl-2-(trifluoromethyl)piperidin-4-yl)-1H-pyrazol-4-yl)-1H-pyrazolo[4,3-c]pyridin-3-yl)-2-((S)-1-(4-fluorophenyl)ethoxy)phenyl)-1,1-difluoromethanesulfonamide]	1 to 100 nM	> 10000 nM	> 10000 nM	< 10 nM	> 10000 nM
C[C@H](Oc1cc(-c2nn(C)c3c(-c4cnn(C5CC6CCC(C5)N6CC(F)(F)F)c4)cnc(N)c23)ccc1NS(=O)(=O)C(F)F)c1ccc(F)cc1 (stereo partly drawn) [Compound 153, N-(4-(4-amino-1-methyl-7-(1-(8-(2,2,2-trifluoroethyl)-8-azabicyclo[3.2.1]octan-3-yl)-1H-pyrazol-4-yl)-1H-pyrazolo[4,3-c]pyridin-3-yl)-2-((S)-1-(4-fluorophenyl)ethoxy)phenyl)-1,1-difluoromethanesulfonamide]	1 to 100 nM	> 10000 nM	> 10000 nM	10 to 1000 nM	> 10000 nM
